Experimental data published in the supplement of paper PMC8988213.
Counter-ions that a name gives are not always drawn.

Columns and labels:
[1] = tested on: ID211 patient-derived PDAC 2D line (post-FOLFIRINOX); experiment: normalised area under dose-response curve (viability relative to DMSO, 7 doses up to 10 µM) (fraction (AUC)); higher = less sensitive (more viability retained); settings: 72 h; top dose: 10 µM
Summary of the method: (§1)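 SelleckChem library compounds were tested for 72 h at seven concentrations (3-fold steps, highest 10 µM) on patient-derived 2D PDAC cells grown out from organoids. These cells had been robotically placed at 1,500–3,000 cells/well in 96-well plates and incubated overnight at 37°C with 5% CO2, and luminescence from CellTiter-Glo was recorded after 10 min. The GRmetrics R package gave the area under the dose-response curve from viability normalised to control wells.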

[2] = tested on: ID188 patient-derived PDAC 2D line (pre-FOLFIRINOX); experiment: as above; settings: 72 h; top dose: 10 µM
Summary of the method: as §1

SMILES	normalised area under dose-response curve [1]	normalised area under dose-response curve [2]
CC[C@H](NC(=O)[C@H](C)NC)C(=O)N1C[C@@H](O)C[C@H]1Cc1c(-c2[nH]c3cc(F)ccc3c2C[C@@H]2C[C@H](O)CN2C(=O)[C@H](CC)NC(=O)[C@H](C)NC)[nH]c2cc(F)ccc12 [Birinapant]	1.02	0.315
Cn1cc(C2=C(c3cn(CCCSC(=N)N)c4ccccc34)C(=O)NC2=O)c2ccccc21 [Bisindolylmaleimide IX (Ro 31-8220 Mesylate)]	0.788	0.942
O=C(O)C(=O)CBr [Bromopyruvic acid]	0.834	0.992
CCOC(=O)Nc1cc(-c2ccc(C)c(NS(C)(=O)=O)c2)nn2c(C)nnc12 [Bromosporine]	0.801	0.878
CS(=O)(=O)OCCCCOS(C)(=O)=O [Busulfan]	0.814	0.948
Clc1ccc(C(c2c[nH]c3ccccc23)c2c[nH]c3ccccc23)cc1 [C-DIM12]	0.897	0.92
O=C(Cc1cccc(OC(F)(F)F)c1)Nc1ccc(CCCCc2nnc(NC(=O)Cc3ccccn3)s2)nn1 [CB-839]	0.597	0.596
Cc1cc2c(C(N)=O)cccc2n1-c1nc2c(c(NCc3ccccc3)n1)COCC2 [CB-5083]	0.643	1.01
CCN1C(=O)CNc2ncc(-c3ccc(-c4nc[nH]n4)nc3C)nc21 [CC-115]	0.7	0.718
COc1ccc(N2C(=O)/C(=C\c3ccc([N+](=O)[O-])s3)SC2=S)cc1 [CCF642]	0.874	0.746
CCS(=O)(=O)N1CCC([C@@H](C)n2c(C)c(C(=O)NCc3c(OC)cc(C)[nH]c3=O)c3ccccc32)CC1 [CPI-169]	0.874	0.924
Cc1sc2c(c1C)C(c1ccc(Cl)cc1)=N[C@@H](CC(N)=O)c1nnc(C)n1-2 [CPI-203]	0.597	0.877
CC(C)c1c(-c2ccccc2)nc2c(C#N)c[nH]n2c1=O [CPI-455 HCl]	0.898	0.972
O=C(O)CCCCC(CCSCc1ccccc1)SCc1ccccc1 (configuration not stated) [CPI-613]	0.902	0.897
C#Cc1cccc(Nc2ncnc3cc(OC)c(OCCCCCCC(=O)NO)cc23)c1 [CUDC-101]	0.765	0.827
O=C(O)c1cc(I)ccc1NC(=O)[C@H](Cc1ccccc1)NCc1ccccc1 [CW069]	0.842	0.937
COc1cc2nccc(Oc3ccc(NC(=O)C4(C(=O)Nc5ccc(F)cc5)CC4)cc3)c2cc1OC [Cabozantinib malate (XL184)]	0.78	0.585
CC(C)C[C@H](NC(=O)[C@H](CCc1ccccc1)NC(=O)CN1CCOCC1)C(=O)N[C@@H](Cc1ccccc1)C(=O)N[C@@H](CC(C)C)C(=O)[C@@]1(C)CO1 [Carfilzomib (PR-171)]	0.0368	0.126
COc1cc2c(Oc3ccc4[nH]c(C)cc4c3F)ncnc2cc1OCCCN1CCCC1 [Cediranib (AZD2171)]	0.83	0.927
Cc1ccc(-c2cc(C(F)(F)F)nn2-c2ccc(S(N)(=O)=O)cc2)cc1 [Celecoxib]	0.892	0.935
Cc1cc(Nc2ncc(Cl)c(Nc3ccccc3S(=O)(=O)C(C)C)n2)c(OC(C)C)cc1C1CCNCC1 [Ceritinib (LDK378)]	0.685	0.823
CN1C(=O)[C@@]23C[C@]4([C@]56C[C@@]78SS[C@@](CO)(C(=O)N7[C@H]5Nc5ccccc56)N(C)C8=O)c5ccccc5N[C@@H]4N2C(=O)[C@]1(CO)SS3 [Chaetocin]	0.0212	0.192
NC(=O)c1ccc2nc(-c3ccc(Oc4ccc(Cl)cc4)cc3)[nH]c2c1 [Chk2 Inhibitor II (BML-277)]	0.865	0.967
N.N.[Cl][Pt][Cl] [Cisplatin]	0.86	0.95
O=C(c1ccc(F)c(F)c1Nc1ccc(I)cc1F)N1CC(O)([C@@H]2CCCCN2)C1 [Cobimetinib (GDC-0973, RG7420)]	0.26	0.639
COc1cc2c(c(OC)c1OC)-c1ccc(OC)c(=O)cc1[C@@H](NC(C)=O)CC2 [Colchicine]	0.589	0.562

SMILES	normalised area under dose-response curve [1]	normalised area under dose-response curve [2]
O=P1(N(CCCl)CCCl)NCCCO1 (configuration not stated) [Cyclophosphamide Monohydrate]	0.899	0.927
Nc1cccc(S(=O)(=O)N2CCCN(S(=O)(=O)c3ccc4c(c3)OCCO4)CC2)c1 [DASA-58]	0.808	0.918
CCN1CCN(Cc2ccc(C(=O)Nc3ccc(C)c(Oc4ccc5c(c4)CC(=O)N5)c3)cc2C(F)(F)F)CC1 [DDR1-IN-1]	0.908	0.934
CCOc1ccc(Cc2cc([C@@H]3O[C@H](CO)[C@@H](O)[C@H](O)[C@H]3O)ccc2Cl)cc1 [Dapagliflozin]	0.913	0.943
Cc1nc(Nc2ncc(C(=O)Nc3c(C)cccc3Cl)s2)cc(N2CCN(CCO)CC2)n1 [Dasatinib hydrochloride]	0.468	0.377
Nc1ncn([C@H]2C[C@H](O)[C@@H](CO)O2)c(=O)n1 [Decitabine]	0.82	0.909
CCC[C@H](NC(=O)/C(C#N)=C/c1cccc(Br)n1)c1ccccc1 [Degrasyn (WP1130)]	0.82	0.869
COc1cc2c(cc1OC)[C@@H]1C(=O)c3ccc4c(c3O[C@@H]1CO2)C=CC(C)(C)O4 [Deguelin]	0.75	0.886
CN1CCN(c2ccc3nc(-c4c(N)c5c(F)cccc5[nH]c4=O)[nH]c3c2)CC1 [Dovitinib (TKI258) Lactate]	0.904	1.01
COc1cccc2c1C(=O)c1c(O)c3c(c(O)c1C2=O)CC(O)(C(=O)CO)CC3OC1CC(N)C(O)C(C)O1 (configuration not stated) [Doxorubicin (Adriamycin) HCl]	0.584	0.672
Cc1cc(Cl)ccc1OCCCC(=O)NO [Droxinostat]	0.936	0.946
CS(=O)(=O)c1ccc(-c2cnc(NCc3ccco3)n3cnnc23)cc1 [EED226]	0.846	0.955
CN(NC(=O)CC(=O)NN(C)C(=S)c1ccccc1)C(=S)c1ccccc1 [Elesclomol (STA-4783)]	0.0189	0.179
NC(=O)/C(=C/n1cnc(-c2cc(C(F)(F)F)cc(C(F)(F)F)c2)n1)c1cncnc1 [Eltanexor (KPT-8602)]	0.579	0.574
CC(C)(O)CNc1nc(Nc2ccnc(C(F)(F)F)c2)nc(-c2cccc(C(F)(F)F)n2)n1 [Enasidenib (AG-221)]	0.875	0.97
Nc1ccccc1NC(=O)c1ccc(CNC(=O)OCc2cccnc2)cc1 [Entinostat (MS-275)]	0.73	0.835
c1cn2cc(-c3ccc4cn[nH]c4c3)nc(Nc3ccc(N4CCOCC4)cc3)c2n1 [Entospletinib (GS-9973)]	0.792	0.891
CN1CCN(c2ccc(C(=O)Nc3n[nH]c4ccc(Cc5cc(F)cc(F)c5)cc34)c(NC3CCOCC3)c2)CC1 [Entrectinib (RXDX-101)]	0.706	0.813
CCOc1ccccc1-n1c(C(C)N2CCN(C(=O)COc3ccc(Cl)cc3)CC2)nc2ccccc2c1=O (configuration not stated) [Erastin]	0.813	0.856
C#Cc1cccc(Nc2ncnc3cc(OCCOC)c(OCCOC)cc23)c1 [Erlotinib]	0.7	0.902
COc1cc([C@@H]2c3cc4c(cc3[C@@H](O[C@@H]3O[C@@H]5CO[C@@H](C)O[C@H]5[C@H](O)[C@H]3O)[C@H]3COC(=O)[C@H]23)OCO4)cc(OC)c1O [Etoposide]	0.853	0.946
Cc1cc([N+](=O)[O-])ccc1NS(=O)(=O)c1cc(Cl)ccc1Cl [FH535]	0.922	0.91
CC1=C(C(=O)OC2CCCCC2)C(c2ccc([N+](=O)[O-])cc2)C2=C(CC(C)(C)CC2=O)N1 (configuration not stated) [FLI-06]	0.792	0.936
O=c1[nH]cc(F)c(=O)[nH]1 [Fluorouracil (5-Fluoracil, 5-FU)]	0.804	0.854
CC(C)n1c(/C=C/C(O)CC(O)CC(=O)O)c(-c2ccc(F)cc2)c2ccccc21 (configuration not stated) [Fluvastatin Sodium]	0.807	0.87
